Where a name gives a salt, the structure may show the parent alone.
How the values were obtained:
human PPARα receptor = biological target: T1, human PPARα receptor (Homo sapiens, UniProt Q07869); experiment: Luciferase reporter assay of PPARα agonist activity (Gal4-PPARα chimera receptor in CV-1 cells); type: cell-based; details: for Emax at 0.1 µM: CV-1, 0.1 μM compound; for Emax at 0.1 µM / Emax at 1 µM / Emax at 10 µM: luciferase activity with 10 μM Wy-14,643 taken as 100, read-out: PPARα agonist activity, relative activity; for Emax at 1 µM: CV-1, 1 μM compound; for Emax at 10 µM: CV-1, 10 μM compound; for PPARα agonist activity, relative activity: luciferase activity with 10 μM Wy-14,643 taken as 100
T1 construct: expressed in transfected cells; host or cells: CV-1 cells (pSG5-based expression vector)
T1 sequence (Q07869 167-468): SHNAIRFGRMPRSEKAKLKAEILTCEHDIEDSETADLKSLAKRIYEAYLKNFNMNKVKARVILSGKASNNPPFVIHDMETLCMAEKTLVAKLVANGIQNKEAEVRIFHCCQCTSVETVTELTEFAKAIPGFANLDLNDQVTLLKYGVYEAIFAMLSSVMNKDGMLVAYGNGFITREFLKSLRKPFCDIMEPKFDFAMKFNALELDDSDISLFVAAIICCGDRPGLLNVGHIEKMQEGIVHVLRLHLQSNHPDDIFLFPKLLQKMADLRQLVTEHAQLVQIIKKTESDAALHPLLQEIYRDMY
Description: (§1) Measurement of PPARα Agonist Activity and PPARγ Agonist Activity
(§2) 1. Materials for Assay of Luciferase Using Human PPARα and PPARγ Receptors
(§3) The entire procedure was carried out according to the fundamental methods of genetic engineering and the ordinary method in the yeast one-hybrid or two-hybrid system was applied.
(§4) PGL2-UAS5-TK-luc was prepared as a reporter plasmid carrying a response sequence of Gal4 protein as a basic transcription factor of yeast, an enhancer sequence with five repeat part of UAS, a luciferase gene (luc) under the control of timidine kinase (TK) promoter. Specifically, a DNA fragment encoding a TK promoter (−105/+51) on the downstream side of an enhancer sequence comprising two time repeat of UAS was amplified by PCR using pRL-TK carrying a TK promoter (Promega, Trade name: Catalogue No. E2241) as the template and the primers: […]
(§5) After the fragment was cleaved with XhoI-Hind III, pGL2-UAS2-TK-luc was obtained by inserting the resultant fragment into the XhoI-Hind III site located on the upstream side of a luciferase structural gene on pGL2-Basic vector (Promega, Trade name: Catalogue No. E1641).
(§6) After cleavage of a synthetic DNA as an enhancer sequence comprising three time repeat of Gal4 response sequence (SEQ ID NO: 3): 5′-ATTGGTAC([…])×3 AGATCTCGAC) using KpnI and BgIII was carried out, pGL2-UAS5-TK-luc was prepared by inserting the resulting fragment into the KpnI-BgIIIb site of pGL2-UAS2-TK-luc.
(§7) A vector for expression of a chimera receptor protein, in which a ligand binding region of an internuclear receptor human PPARα or PPARγ receptor was fused with the carboxyl terminal of a DNA binding region of yeast Ga14 protein, was prepared as follows:
(§8) The structural gene of pSG5 (STRATAGENE, Trade Name: Catalogue No. 216201) as the basic expression vector was changed for the chimera receptor except that the promoter-enhancer region was maintained as it was.
(§9) The DNA encoding the ligand binding region of the human PPARα or PPARγ receptor was fused on the downstream side of the DNA encoding the DNA binding region and the amino acid sequence from 1 to 147 positions of Ga14 protein so that their reading frames were fitted and the resulting fused DNA was inserted into pSG5 (trade name) on the down stream side of the promoter-enhancer region. In this step, the DNA sequence was arranged so that a signal for transfer into the nucleus (Ala Pro Lys Lys Lys Arg Lys Val Gly (SEQ ID: No: 4) derived from SV-40T antigen was located on the amino terminal of the ligand binding region of PPARα or PPARγ receptor in order to localize the chimera receptor in the nucleus.
(§10) Based on comparison of the human PPAR receptors described in R. Mukherjee et al., [see J. Steroid Biochem. Molec. Biol., Vol. 51, p157 (1994)] and M. E. Green et al., [see Gene Expression, Vol. 4, p281 (1995))], as the structural gene part used for the ligand binding region PPARα or PPARγ, the human PPARα ligand binding region: Ser167-Tyr468; and the PPARγ ligand binding region: Ser176-Tyr478 were used, which had the same sequences corresponding to Ser204-Tyr506 for human PPARγ1 receptor and human PPARγ2, respectively.
(§11) In order to monitor influence against the basic transcription, an expression vector was prepared which carried a DNA encoding only the DNA binding region and the amino acid sequence from 1 to 147 position of Ga14 protein defective in its PPAR ligand binding region and a signal for transfer into the nucleus of SV-40T-antigen.
(§12) 2. Assay of Luciferase Using Human PPARα or PPARγ Receptor
(§13) CV-1 cells used as a host cell were cultivated according to an ordinary method. Specifically, a fetal bovine serum (Intergent, Catalogue No. 1020-90) was added to a Dulbecco's modified Eagle's medium (DMEM) so that the final concentration became 10%. Further, penicillin G (50 U/ml) and streptomycin sulfate (50 μg/ml) were added. Cultivation was conducted in the resulting medium in a 5% carbon dioxide gas at 37° C. […]

human PPARγ receptor = biological target: T2, human PPARγ receptor (Homo sapiens, UniProt P37231); experiment: Luciferase reporter assay of PPARγ agonist activity (Gal4-PPARγ chimera receptor in CV-1 cells); type: cell-based; details: for Emax at 0.1 µM: CV-1, 0.1 μM compound; for Emax at 0.1 µM / Emax at 1 µM / Emax at 10 µM: luciferase activity with 1 μM Pioglitazone taken as 100, read-out: PPAR γ agonist activity, relative activity; for Emax at 1 µM: CV-1, 1 μM compound; for Emax at 10 µM: CV-1, 10 μM compound; for PPAR γ agonist activity, relative activity: luciferase activity with 1 μM Pioglitazone taken as 100
T2 construct: corresponding to Ser204-Tyr506 for human PPARγ1 receptor and human PPARγ2; expressed in transfected cells; host or cells: CV-1 cells (pSG5-based expression vector)
T2 sequence (P37231 204-505 limits assumed): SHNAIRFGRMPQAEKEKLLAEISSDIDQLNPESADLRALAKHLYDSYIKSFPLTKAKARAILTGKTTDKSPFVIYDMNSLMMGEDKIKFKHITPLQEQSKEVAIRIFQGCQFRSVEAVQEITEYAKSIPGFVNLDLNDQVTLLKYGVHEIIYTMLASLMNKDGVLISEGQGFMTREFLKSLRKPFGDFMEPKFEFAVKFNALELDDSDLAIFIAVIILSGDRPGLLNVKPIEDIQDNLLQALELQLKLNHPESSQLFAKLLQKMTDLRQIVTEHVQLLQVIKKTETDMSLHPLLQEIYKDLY
Description: as §1, §2, §3, §4, §5, §6, §7, §8, §9, §10, §11, §12, §13

SMILES | Emax at 0.1 µM (human PPARα receptor) [%] | Emax at 1 µM (human PPARα receptor) [%] | Emax at 10 µM (human PPARα receptor) [%] | Emax at 0.1 µM (human PPARγ receptor) [%] | Emax at 1 µM (human PPARγ receptor) [%] | Emax at 10 µM (human PPARγ receptor) [%] | PPARα agonist activity, relative activity (human PPARα receptor; 0.1 μM compound) | PPARα agonist activity, relative activity (human PPARα receptor; 1 μM compound) | PPARα agonist activity, relative activity (human PPARα receptor; 10 μM compound) | PPAR γ agonist activity, relative activity (human PPARγ receptor; 0.1 μM compound) | PPAR γ agonist activity, relative activity (human PPARγ receptor; 1 μM compound) | PPAR γ agonist activity, relative activity (human PPARγ receptor; 10 μM compound)
COc1ccc2ncc(COc3ccc(CC(Sc4ccccc4)C(=O)O)cc3)c(OC(C)C)c2c1 (stereo not drawn) [Example 19 (108), 3-{[4-(4-isopropoxy-6-methoxyquinoline-3-yl)methyloxy]phenyl}-2-phenylthiopropanoic acid] | 0.3 | 0.3 | 0.6 | 25.2 | 83.5 | 97.9 |  |  |  |  |  | 
CCOC(Cc1ccc(OCc2cnc3c(Cl)cccc3c2OC(C)C)cc1)C(=O)O (stereo not drawn) [Example 13 (76), 3-{[4-(8-chloro-4-isopropoxyquinoline-3-yl)methyloxy]phenyl}-2-ethoxypropanoic acid] | 0.3 | 0.9 | 41.1 | 104 | 140 | 130 |  |  |  |  |  | 
CCOC(Cc1ccc(OCc2cccc3cccnc23)cc1)C(=O)O (stereo not drawn) [Example 16 (32), 2-ethoxy-3-{[4-(quinoline-8-yl)methyloxy]phenyl}propanoic acid] | 0.3 | 0.4 | 45.2 | 1.6 | 71.8 | 127 |  |  |  |  |  | 
CCOC(Cc1ccc(OCc2cnc3c(F)cccc3c2OC(C)C)cc1)C(=O)O (stereo not drawn) [Example 15 (82), 2-ethoxy-3-{[4-(8-fluoro-4-isopropoxyquinoline-3-yl)methyloxy]phenyl}propanoic acid] | 0.3 | 0.3 | 5 | 52.3 | 133 | 125 |  |  |  |  |  | 
CCOC(Cc1ccc(OCc2cnc3cc(OC)c(OC)cc3c2OC(C)C)cc1)C(=O)O (stereo not drawn) [Example 8 (65), 2-ethoxy-3-{[4-(4-isopropoxy-6,7-dimethoxyquinoline-3-yl)methyloxy]phenyl}propanoic acid] | 0.3 | 0.3 | 1.5 | 1.3 | 13 | 107 |  |  |  |  |  | 
COC(=O)C(Cc1ccc(OCc2cnc3ccc(OC)cc3c2OC(C)C)cc1)C(=O)OC [Example 22 (120), dimethyl{[4-(4-isopropoxy-6-methoxyquinoline-3-yl)methyloxy]phenyl}methylmalonate hydrochloride] |  |  |  | 3.5 | 62.3 | 108 |  |  |  |  |  | 
CCOC(Cc1ccc(OCc2ccc3ncccc3c2)cc1)C(=O)O (stereo not drawn) [Example 10 (32), 2-ethoxy-3-{[4-(quinoline-6-yl)methyloxy]phenyl}propanoic acid] |  |  |  |  |  |  | 0.2 | 0.3 | 50.1 | 1.0 | 20.8 | 123.9
CCOC(Cc1ccc(OCc2cnc3ccc(CC)cc3c2OC(C)C)cc1)C(=O)O (stereo not drawn) [Example 6 (67), 2-ethoxy-3-{[4-(4-isopropoxy-6-ethylquinoline-3-yl)methyloxy]phenyl}propanoic acid] | 5.7 | 47.1 | 74 | 122 | 140 | 125 |  |  |  |  |  | 
CNC(=O)/C(=C/c1ccc(OCc2cnc3ccc(OC)cc3c2OC(C)C)cc1)C(C)=O [Example 25 (144), 2-{[4-(4-isopropoxy-6-methoxyquinoline-3-yl)methyloxy]phenylmethylene}-3-oxobutanoic acid N-methylamide hydrochloride] |  |  |  | 0.7 | 1.9 | 6.2 |  |  |  |  |  | 
CCOC(=O)C(Cc1ccc(OC)c(OCc2cnc3ccc(OC)cc3c2OC(C)C)c1)C(=O)OCC [Example 28 (129), diethyl{[3-(4-isopropoxy-6-methoxyquinoline-3-yl)methyloxy]-4-methoxyphenyl}methylmalonate hydrochloride] |  |  |  | 1.3 | 2.1 | 14.7 |  |  |  |  |  | 
CCOC(=O)C(Cc1cccc(OCc2cnc3ccc(OC)cc3c2OC(C)C)c1)C(=O)OCC [Example 27 (128), diethyl{[3-(4-isopropoxy-6-methoxyquinoline-3-yl)methyloxy]phenyl}methylmalonate hydrochloride] |  |  |  | 1.2 | 2.1 | 42.5 |  |  |  |  |  | 
CCOC(Cc1ccc(OC)c(OCc2cnc3ccc(OC)cc3c2OC(C)C)c1)C(=O)O (stereo not drawn) [Example 21 (118), 2-ethoxy-3-{[3-(4-isopropoxy-6-methoxyquinoline-3-yl)methyloxy]-4-methoxyphenyl}propanoic acid] |  |  |  | 1.4 | 1.9 | 22.4 |  |  |  |  |  | 
CCOC(Cc1cccc(OCc2cnc3ccc(OC)cc3c2OC(C)C)c1)C(=O)O (stereo not drawn) [Example 20 (114), 2-ethoxy-3-{[3-(4-isopropoxy-6-methoxyquinoline-3-yl)methyloxy]phenyl}propanoic acid] |  |  |  | 9.3 | 91 | 110 |  |  |  |  |  | 
CCC(=O)C(Cc1ccc(OCc2cnc3ccc(OC)cc3c2OC(C)C)cc1)C(=O)OC (stereo not drawn) [Example 23 (137), methyl 2-{[4-(4-isopropoxy-6-methoxyquinoline-3-yl)methyloxy]phenylmethyl}-3-oxopentanoate hydrochloride] |  |  |  | 2.8 | 30.5 | 63.1 |  |  |  |  |  | 
